{
  "source": "patent US9889150B2",
  "about": "“Agents for the prevention and/or treatment of central nervous system damage” (The University Of Liverpool, priority 2012, dated 2018)",
  "origin": "cited, not measured here",
  "key": {"FGFR3": {"target": "FGFR3 (Homo sapiens, UniProt P22607)", "sequence (P22607 23-806, species assumed)": "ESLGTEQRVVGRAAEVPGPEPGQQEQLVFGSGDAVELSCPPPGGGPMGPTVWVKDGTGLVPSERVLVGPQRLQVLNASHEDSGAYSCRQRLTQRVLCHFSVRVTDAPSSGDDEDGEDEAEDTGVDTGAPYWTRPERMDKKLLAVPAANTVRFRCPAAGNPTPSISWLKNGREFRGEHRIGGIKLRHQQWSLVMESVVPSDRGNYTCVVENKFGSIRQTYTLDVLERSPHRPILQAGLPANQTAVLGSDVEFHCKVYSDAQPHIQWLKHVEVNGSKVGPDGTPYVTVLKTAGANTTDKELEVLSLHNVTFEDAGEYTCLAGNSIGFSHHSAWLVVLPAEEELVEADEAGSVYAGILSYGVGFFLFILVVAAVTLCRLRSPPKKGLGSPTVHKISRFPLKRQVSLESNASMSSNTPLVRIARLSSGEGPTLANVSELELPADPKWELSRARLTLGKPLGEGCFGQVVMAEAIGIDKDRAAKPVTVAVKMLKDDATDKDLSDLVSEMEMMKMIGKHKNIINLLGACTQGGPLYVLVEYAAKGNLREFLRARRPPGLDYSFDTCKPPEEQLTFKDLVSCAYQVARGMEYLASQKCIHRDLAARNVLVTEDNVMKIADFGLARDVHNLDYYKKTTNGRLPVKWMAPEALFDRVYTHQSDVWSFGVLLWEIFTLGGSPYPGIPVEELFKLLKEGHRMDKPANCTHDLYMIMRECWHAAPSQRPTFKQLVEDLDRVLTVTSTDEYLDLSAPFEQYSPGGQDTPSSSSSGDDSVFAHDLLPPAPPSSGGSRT", "conditions": "cited from earlier work"}, "OECs and astrocytes": {"tested_on": "OECs and astrocytes", "conditions": "previous work; cited from earlier work"}},
  "data": [
    {"smiles": "Cc1c[nH]c(/C=C2\\C(=O)Nc3ccccc32)c1CCC(=O)O", "note": "[SU5402]", "values": [
      {"measurement": "inhibition of FGFR3", "setting": "FGFR3", "result": "effectively inhibit FGFR3"},
      {"measurement": "SCM-induced boundary formation in OEC/astrocyte cultures", "setting": "OECs and astrocytes", "result": "disrupts SCM-induced boundary formation"}
    ]}
  ]
}
